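Five concentrations, 48 hours, 96-well plates. GI50: concentration for 50% inhibition of growth. At the TGI there is no net growth.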
Columns and labels:
Assay in all cases: DTP human tumour cell line panel, 48 h
[1] = tested on: A549 NSCLC
[2] = tested on: HS 578T breast
[3] = tested on: NCI-H23 lung
[4] = tested on: ACHN renal
[5] = tested on: MCF7 breast
[6] = tested on: SNB-75 CNS
[7] = tested on: HCT-15 colon
[8] = tested on: BT-549 breast
[9] = tested on: T-47D breast
[10] = tested on: IGROV1 ovarian

SMILES | GI50 [1] | TGI [1] | GI50 [2] | TGI [2] | GI50 [3] | TGI [3] | GI50 [4] | TGI [4] | GI50 [5] | TGI [5] | GI50 [6] | TGI [6] | GI50 [7] | TGI [7] | GI50 [8] | TGI [8] | GI50 [9] | TGI [9] | GI50 [10] | TGI [10]
COc1ccc(-c2nsc3c2NC(=O)CC3c2ccc3c(c2)OCO3)cc1 (stereo not given) | 0.841 µM | > 100 µM | 2.06 µM | 54.5 µM | 3.2 µM | > 100 µM | 3.14 µM | > 100 µM | 0.367 µM | > 100 µM | 1.49 µM | 9.97 µM | 0.493 µM | > 100 µM | 2.54 µM | > 100 µM | 0.724 µM | > 100 µM | 2.61 µM | > 100 µM
COc1ccc(Nc2ccnc(NCCNc3ccnc4cc(Cl)ccc34)n2)cc1 | 3.67 µM | 13.7 µM | 2 µM | 5.91 µM | 2.75 µM | 14.9 µM | 2.27 µM | 6.06 µM | 1.53 µM | 5.2 µM | 1.17 µM | 2.52 µM | 1.23 µM | 4.03 µM | 1.86 µM | 7.01 µM | 1.61 µM | 5.72 µM | 1.99 µM | 11 µM
O=c1[nH]cnc2c1nnn2C1OC(CO)C(O)C1O (stereo not given) | 29.1 µM | > 100 µM | 4.27 µM | 69.8 µM | 4.25 µM | > 100 µM | 1.04 µM | > 100 µM | 1.41 µM | > 78.8 µM | 2.43 µM | > 100 µM | 1.21 µM | > 100 µM | 7.77 µM | > 100 µM | 0.736 µM | > 100 µM | 1.27 µM | > 57.7 µM
CCN(CC)CCOc1ccc(Nc2ncc3cc(-c4c(Cl)cccc4Cl)c(=O)n(CCOC)c3n2)cc1 | 0.498 µM | 4.18 µM | 0.0273 µM | 1.57 µM | 0.806 µM | 3.95 µM | 0.0205 µM | 5.72 µM | 1.57 µM | 8.4 µM | 0.00601 µM | 0.0454 µM | 0.128 µM | 6.1 µM | 0.533 µM | 2.7 µM | 0.133 µM | 16.5 µM | 0.0138 µM | 0.0983 µM
COc1cc2c(c(OC)c1OC)-c1ccc(NNC(=S)N(Cc3cccc(C[N+](Cc4cccc(CNC56CC7CC(CC(C7)C5)C6)c4)(Cc4cccc(CNC56CC7CC(CC(C7)C5)C6)c4)Cc4cccc(CN(C(=S)NNc5ccc6c(cc5=O)[C@@H](NC(C)=O)CCc5cc(OC)c(OC)c(OC)c5-6)C56CC7CC(CC(C7)C5)C6)c4)c3)C34CC5CC(CC(C5)C3)C4)c(=O)cc1[C@@H](NC(C)=O)CC2 (stereo not given in full) | 1.61 µM | 6 µM | 1.22 µM | 6.76 µM | 1.38 µM | 5.33 µM | 3.68 µM | 7.99 µM | 0.862 µM | 3.44 µM | 1.4 µM | 6.68 µM | 1.56 µM | 5.96 µM | 1.55 µM | 5.89 µM | 1.83 µM | 9.4 µM | 1.45 µM | 5.95 µM
CNc1nc(C)c(-c2nc(Nc3cccc(S(N)(=O)=O)c3)ncc2F)s1 | 0.0874 µM | 15.2 µM | 0.0429 µM | 3.97 µM | 0.0432 µM | 0.171 µM | 0.0266 µM | 11.7 µM | 0.0255 µM | 4.64 µM | 0.044 µM | 0.147 µM | 0.048 µM | 12.1 µM | 0.0228 µM | 0.0753 µM | 0.0274 µM | 0.472 µM | 0.0349 µM | 12.3 µM
NC1C2C(CC(=O)O)OCC=C3CN4CCC1(C(=O)C(=O)O)C4CC32 (stereo not given) |  | > 100 µM |  | > 100 µM |  | > 100 µM |  | > 100 µM |  | > 100 µM |  | > 100 µM |  | > 100 µM |  | > 100 µM |  | > 100 µM |  | > 100 µM
Nc1c(C(=O)c2cccc(-c3ccc[n+]([O-])c3)c2)cnn1-c1ccc(F)cc1F | > 25 µM | > 25 µM | > 25 µM | > 25 µM | > 25 µM | > 25 µM | > 25 µM | > 25 µM | > 25 µM | > 25 µM | > 25 µM | > 25 µM | > 25 µM | > 25 µM | > 25 µM | > 25 µM | > 25 µM | > 25 µM | > 25 µM | > 25 µM
O=C1c2ccccc2-c2c1c1ccc([N+](=O)[O-])cc1c(=O)n2CCNCCCNCCn1c2c(c3ccc([N+](=O)[O-])cc3c1=O)C(=O)c1ccccc1-2 | 0.521 µM | 17.6 µM | 1.34 µM | 31.4 µM | 0.0682 µM | 6.97 µM | 0.338 µM | 24.5 µM | 0.708 µM | 27.1 µM | 0.445 µM | 2.41 µM | 0.197 µM | 16.1 µM | 2.57 µM | 50 µM | 2.07 µM | 11.3 µM | 0.0249 µM | 4.38 µM

From PubChem BioAssay (NCI)
